For 31 molecules, IC50 results are on record in patent US20250179032A1, “HETEROCYCLIC INHIBITORS OF GLUT9 FOR TREATMENT OF DISEASE” (HORIZON THERAPEUTICS IRELAND DAC, priority 2022, published 2025).

Like-named read-outs stand apart in the source and are kept apart here. Some results are limits rather than exact numbers.

For the assay, the target named is T1, H. sapiens SLC2A9 variant 2 (GLUT9B) (Homo sapiens, UniProt Q9NRM0).
T1 sequence (Q9NRM0 1-511 isoform Q9NRM0-2): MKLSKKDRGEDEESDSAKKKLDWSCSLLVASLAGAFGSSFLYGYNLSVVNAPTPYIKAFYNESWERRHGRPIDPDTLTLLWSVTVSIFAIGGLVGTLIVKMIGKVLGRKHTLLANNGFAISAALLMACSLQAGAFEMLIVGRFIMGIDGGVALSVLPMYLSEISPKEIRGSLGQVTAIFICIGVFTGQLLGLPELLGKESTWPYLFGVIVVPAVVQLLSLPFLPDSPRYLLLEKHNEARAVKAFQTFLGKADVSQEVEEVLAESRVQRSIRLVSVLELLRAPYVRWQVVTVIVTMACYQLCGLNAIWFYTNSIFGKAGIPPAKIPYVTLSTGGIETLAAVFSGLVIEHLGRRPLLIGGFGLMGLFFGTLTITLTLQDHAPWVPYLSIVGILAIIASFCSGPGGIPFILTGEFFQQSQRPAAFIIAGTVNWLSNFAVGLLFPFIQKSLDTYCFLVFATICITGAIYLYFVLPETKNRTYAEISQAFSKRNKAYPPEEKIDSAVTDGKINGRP
Put plainly: GLUT9 functional assay: uric acid uptake in HEK293T cells, allantoin formation by MS/MS as proxy of GLUT9B inhibition. The format is cell-based. Conditions: HEK293T cells stably expressing GLUT9B and transiently A. oryzae uricase, uric acid 0.3 mM, 37° C. The method in brief:
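Inhibition of GLUT9B-mediated urate uptake read as reduced allantoin formation, measured by MS/MS against allantoin standards in HEK293T matrix with log-logistic fitting. Stable GLUT9B HEK293T cells carrying transfected A. oryzae uricase were incubated 15 or 60 min at 37° C with uric acid at Km (0.3 mM), pH 7.4 gluconate buffer.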

Setting [1] is: 60 minute assay, read-out: 60 min IC50.
Setting [2] is: 15 minute assay, read-out: 15 min IC50.

The term IC50 denotes the midpoint of a concentration-inhibition curve. Consider `COCCCc1cnc(-c2cc(OC(F)(F)F)c3occc3c2)c(N2CCC(C(=O)O)CC2)n1` [Compound 238, 1-(6-(3-methoxypropyl)-3-(7-(trifluoromethoxy)benzofuran-5-yl)pyrazin-2-yl)piperidine-4-carboxylic acid], for which the concentration for half-maximal inhibition (IC50) under setting [1] lay within 500 to 2000 nM.

`COCCCc1cnc(-c2ccc3c(c2)CCS3(=O)=O)c(N2CCC(C(=O)O)CC2)n1` [Compound 233, 1-(3-(1,1-dioxido-2,3-dihydrobenzo[b]thiophen-5-yl)-6-(3-methoxypropyl)pyrazin-2-yl)piperidine-4-carboxylic acid]: the IC50 under setting [1] was more than 2000 nM. For the molecule `COCCCc1cnc(-c2cc(C(F)F)c3occc3c2)c(N2CCC(C(=O)O)CC2)n1` [Compound 240, 1-(3-(7-(difluoromethyl)benzofuran-5-yl)-6-(3-methoxypropyl)pyrazin-2-yl)piperidine-4-carboxylic acid], the IC50 under setting [1] was less than 500 nM.

In the case of `CC(F)(F)CCc1cnc(-c2ccc3c(c2)OCO3)c(N2CCC(C(=O)O)CC2)n1` [Compound 136], the IC50 under setting [2] is less than 500 nM. Regarding `COCCCc1cnc(-c2ccc3occc3c2)c(N2CCC[C@H](C(=O)O)C2)n1` (single isomer, unassigned) [Compound 235], under setting [1], the 50% inhibitory concentration (IC50) was more than 2000 nM. In the case of `COCCCc1cnc(-c2ccc(S(C)(=O)=O)cc2)c(N2CCC(C(=O)O)CC2)n1` [Compound 230, 1-(6-(3-methoxypropyl)-3-(4-(methylsulfonyl)phenyl)pyrazin-2-yl)piperidine-4-carboxylic acid], the IC50 under setting [1] was less than 500 nM. On to `O=C(O)C1CCN(c2nc(CCC(F)(F)F)cnc2-c2ccc(OC(F)(F)F)cc2)CC1` [Compound 161, 1-(3-(4-(trifluoromethoxy)phenyl)-6-(3,3,3-trifluoropropyl)pyrazin-2-yl)piperidine-4-carboxylic acid], for which the IC50 under setting [2] fell in the range of 500 to 2000 nM. The same measure, in the same setting: the figure for `CCCCc1cnc(-c2ccc(OC)s2)c(N2CCC(C(=O)O)CC2)n1` [Compound 43, 1-(6-butyl-3-(5-methoxythiophen-2-yl)pyrazin-2-yl)piperidine-4-carboxylic acid] is more than 2000 nM. As for `O=C(O)C1CCN(c2nc(CCCC(F)F)cnc2-c2ccc3occc3c2)CC1` [Compound 142, 1-(3-(benzofuran-5-yl)-6-(4,4-difluorobutyl)pyrazin-2-yl)piperidine-4-carboxylic acid], the IC50 under setting [2] was less than 500 nM and the half-maximal inhibitory concentration (IC50) under setting [1] is less than 500 nM. On to `COCCCc1cnc(-c2ccnc3cc(F)c(OC)cc23)c(N2CCC(C(=O)O)CC2)n1` [Compound 222, 1-(3-(7-fluoro-6-methoxyquinolin-4-yl)-6-(3-methoxypropyl)pyrazin-2-yl)piperidine-4-carboxylic acid], for which the concentration for half-maximal inhibition (IC50) under setting [1] was more than 2000 nM.

In the case of `COCCCc1cnc(-c2ccc3c[nH]nc3c2)c(N2CCC(C(=O)O)CC2)n1` [Compound 193, 1-(3-(2H-indazol-6-yl)-6-(3-methoxypropyl)pyrazin-2-yl)piperidine-4-carboxylic acid], the IC50 under setting [1] was more than 2000 nM.

For `COc1ccc(-c2ncc(CCC(F)(F)F)nc2N2CCC(OCC(=O)O)CC2)cc1` [Compound 100, 2-((1-(3-(4-methoxyphenyl)-6-(3,3,3-trifluoropropyl)pyrazin-2-yl)piperidin-4-yl)oxy)acetic acid], the IC50 under setting [2] is less than 500 nM. On to `O=C(O)C1CCN(c2nc(CCCCC(F)(F)F)cnc2-c2ccc3c(c2)CCO3)CC1` [Compound 131, 1-(3-(2,3-dihydrobenzofuran-5-yl)-6-(5,5,5-trifluoropentyl)pyrazin-2-yl)piperidine-4-carboxylic acid], for which the IC50 under setting [2] is less than 500 nM.

With `O=C(O)C1CCN(c2nc(CCCCC(F)(F)F)cnc2-c2ccc(OCC3CC3)cc2)CC1` [Compound 153, 1-(3-(4-(cyclopropylmethoxy)phenyl)-6-(5,5,5-trifluoropentyl)pyrazin-2-yl)piperidine-4-carboxylic acid], the IC50 under setting [2] was less than 500 nM. Still for that read-out and setting: the figure for `O=C(O)C1CCN(c2nc(CCCC(F)(F)F)cnc2-c2ccc3c(c2)CCCO3)CC1` [Compound 112, 1-(3-(chroman-6-yl)-6-(4,4,4-trifluorobutyl)pyrazin-2-yl)piperidine-4-carboxylic acid] is 500 to 2000 nM; for `COCCOc1ccc(-c2ncc(CCS(C)(=O)=O)nc2N2CCC(C(=O)O)CC2)cc1` [Compound 85, 1-(3-(4-(2-methoxyethoxy)phenyl)-6-(2-(methylsulfonyl)ethyl)pyrazin-2-yl)piperidine-4-carboxylic acid] it is more than 2000 nM. With `CC(F)(F)CCc1cnc(-c2ccc3c(c2)CCO3)c(N2CCC(C(=O)O)CC2)n1` [Compound 135, 1-(6-(3,3-difluorobutyl)-3-(2,3-dihydrobenzofuran-5-yl)pyrazin-2-yl)piperidine-4-carboxylic acid], the half-maximal inhibitory concentration (IC50) under setting [2] fell in the range of 500 to 2000 nM. The same measure, in the same setting: the figure for `CS(=O)(=O)NC(=O)C1CCN(c2nc(COCC(F)(F)F)cnc2-c2cc(F)c3occc3c2)CC1` [Compound 66, 1-(3-(7-fluorobenzofuran-5-yl)-6-((2,2,2-trifluoroethoxy)methyl)pyrazin-2-yl)-N-(methylsulfonyl)piperidine-4-carboxamide] is 500 to 2000 nM. Take `COCCCc1cnc(-c2cc(F)c3occc3c2)c(N2CCC(C(=O)O)CC2)n1` [Compound 173, 1-(3-(7-Fluorobenzofuran-5-yl)-6-(3-Methoxypropyl)Pyrazin-2-yl)piperidine-4-carboxylic acid]: the IC50 by setting is: under setting [2], less than 500 nM; under setting [1], less than 500 nM. As for `CS(=O)(=O)CCc1cnc(-c2cc(F)c3occc3c2)c(N2CCC(C(=O)O)CC2)n1` [Compound 84, 1-(3-(7-fluorobenzofuran-5-yl)-6-(2-(methylsulfonyl)ethyl)pyrazin-2-yl)piperidine-4-carboxylic acid], the half-maximal inhibitory concentration (IC50) under setting [2] was more than 2000 nM. Consider `COCCCc1cnc(-c2ccc3occc3c2)c(N2CCC3(C(=O)O)CC2C3)n1` [Compound 181, 2-(3-(benzofuran-5-yl)-6-(3-methoxypropyl)pyrazin-2-yl)-2-azabicyclo[3.1.1]heptane-5-carboxylic acid], for which the IC50 under setting [1] was less than 500 nM. For `COCCn1ccc2cc(-c3ncc(COC)nc3N3CCC(C(=O)O)CC3)cc(F)c21` [Compound 50, 1-(3-(7-fluoro-1-(2-methoxyethyl)-1H-indol-5-yl)-6-(methoxymethyl)pyrazin-2-yl)piperidine-4-carboxylic acid], the IC50 under setting [2] was more than 2000 nM. Still for that read-out and setting: the figure for `COc1ccc(-c2ncc(CCC(F)(F)C(F)(F)F)nc2N2CCC(C(=O)O)CC2)cc1` [Compound 30, 1-(3-(4-methoxyphenyl)-6-(3,3,4,4,4-pentafluorobutyl)pyrazin-2-yl)piperidine-4-carboxylic acid] is less than 500 nM.

Turning to `O=C(O)C1CCN(c2nc(CCCC(F)(F)F)cnc2-c2ccc(OC(F)(F)F)cc2)CC1` [Compound 157, 1-(6-(4,4,4-trifluorobutyl)-3-(4-(trifluoromethoxy)phenyl)pyrazin-2-yl)piperidine-4-carboxylic acid], the IC50 under setting [2] is less than 500 nM. On the same count and under the same terms, as for `CN(C)S(=O)(=O)NC(=O)C1CCN(c2nc(COCC(F)(F)F)cnc2-c2cc(F)c3occc3c2)CC1` [Compound 80, N-(N,N-dimethylsulfamoyl)-1-(3-(7-fluorobenzofuran-5-yl)-6-((2,2,2-trifluoroethoxy)methyl)pyrazin-2-yl)piperidine-4-carboxamide], the figure is 500 to 2000 nM. As for `Fc1cc(-c2ncc(CCC(F)(F)F)nc2N2CCC(c3nn[nH]n3)CC2)cc2ccoc12` [Compound 69, 3-(4-(2H-tetrazol-5-yl)piperidin-1-yl)-2-(7-fluorobenzofuran-5-yl)-5-(3,3,3-trifluoropropyl)pyrazine], the IC50 under setting [2] is less than 500 nM.

On to `COCCOc1ccc(-c2ncc(CC(COC)COC)nc2N2CCC(C(=O)O)CC2)cc1` [Compound 155, 1-(6-(3-methoxy-2-(methoxymethyl)propyl)-3-(4-(2-methoxyethoxy)phenyl)pyrazin-2-yl)piperidine-4-carboxylic acid], for which the 50% inhibitory concentration (IC50) under setting [2] is more than 2000 nM. Take `O=C(O)C1CCN(c2nc(CCCC(F)(F)F)cnc2-c2ccc3c(c2)OCO3)CC1` [Compound 108, 1-(3-(benzo[d][1,3]dioxol-5-yl)-6-(4,4,4-Trifluorobutyl)Pyrazin-2-yl)piperidine-4-carboxylic acid]: the IC50 under setting [2] was less than 500 nM and the IC50 under setting [1] is less than 500 nM. With `O=C(O)C1CCN(c2nc(CCCC(F)(F)F)cnc2-c2ccc(OCC3CC3)cc2)CC1` [Compound 111, 1-(3-(4-(cyclopropylmethoxy)phenyl)-6-(4,4,4-trifluorobutyl)pyrazin-2-yl)piperidine-4-carboxylic acid], the IC50 under setting [2] was less than 500 nM. Turning to `O=C(O)CC1CN(c2nc(CCC(F)(F)F)cnc2-c2cc(F)c3occc3c2)C1` [Compound 90, 2-(1-(3-(7-fluorobenzofuran-5-yl)-6-(3,3,3-trifluoropropyl)pyrazin-2-yl)azetidin-3-yl)acetic acid], the IC50 under setting [2] is 500 to 2000 nM. Turning to `COCCCc1cnc(-c2ccc3c(c2)OCO3)c(N2CC(C(=O)O)C2)c1` [Compound 251, 1-(2-(benzo[d][1,3]dioxol-5-yl)-5-(3-methoxypropyl)pyridin-3-yl)azetidine-3-carboxylic acid], the IC50 under setting [1] was more than 2000 nM.
